Structures can show the parent of a compound that is named as a salt.
target: MCH receptor (Homo sapiens, UniProt Q99705); assay: FLIPR/FDSS6000 functional assay: intracellular Ca2+ changes evoked by MCH; type: cell-based; details: antagonist activity, 50 nM of MCH, [Ca2+]i by FLIPR or FDSS; read-out: IC50
Method in brief: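 Cells expressing a constitutively active, non-endogenous MCH receptor were loaded with 4 μM Fluo-4-AM for 1 hr at 37 °C. They were then preincubated 30 min with compound before MCH addition, using 50 nM MCH for antagonist testing. [Ca2+]i transients were monitored at Ex 488/Em 530 nm for 290 s by FLIPR or FDSS.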

Compound | IC50
Cc1nc(N[C@H]2CC[C@@H](NC(=O)c3cccc(Cl)c3)CC2)cc(N(C)C)n1 [Example 24, 3-Chloro-N-(cis-4-{[6-(dimethylamino)-2-methylpyrimidin-4-yl]amino}cyclohexyl)-benzamide hydrochloride] | 26 nM

same assay, conditions: class by percent of control at 10^−7 M or by IC50; antagonist activity, 50 nM of MCH; read-out: class

Compound | IC50
Cc1nc(N[C@H]2CC[C@@H](C(=O)Oc3ccc(F)c(F)c3)CC2)cc(N(C)C)n1 [Example 196, 3,4-Difluorophenyl cis-4-{[6-(dimethylamino)-2-methylpyrimidin-4-yl]amino}-cyclohexanecarboxylate hydrochloride] | > 200 nM
Cc1nc(N[C@H]2CC[C@@H](NC(=O)c3ccc(F)c(Cl)c3)CC2)cc(-n2ccnc2)n1 [Example 38, 3-Chloro-4-fluoro-N-(cis-4-{[6-(1H-imidazol-1-yl)-2-methylpyrimidin-4-yl]amino}cyclohexyl)-benzamide dihydrochloride] | > 200 nM
CN(C)c1cc(N[C@H]2CC[C@@H](NCc3ccc(Br)cc3OC(F)(F)F)CC2)ncn1 [Example 1, N′-(cis-4-{[4-Bromo-2-(trifluoromethoxy)benzyl]amino}cyclohexyl)-N,N-dimethylpyrimidine-4,6-diamine dihydrochloride] | > 200 nM
Cc1nc(N[C@H]2CC[C@@H](NC(=O)c3ccc(F)c(Cl)c3)CC2)cc(N2CCCCC2)n1 [Example 37, 3-Chloro-4-fluoro-N-{cis-4-[(2-methyl-6-piperidin-1-ylpyrimidin-4-yl)amino]cyclohexyl}-benzamide hydrochloride] | > 200 nM
Cc1nc(N[C@H]2CC[C@@H](NC(=O)c3ccc(F)c(Cl)c3)CC2)c(C)c(N(C)C)n1 [Example 180, 3-Chloro-N-(cis-4-{[6-(dimethylamino)-2,5-dimethylpyrimidin-4-yl]amino}cyclohexyl)-4-fluorobenzamide hydrochloride] | > 200 nM
Cc1nc(N[C@H]2CC[C@@H](NC(=O)c3ccc(C(F)(F)F)c(F)c3)CC2)cc(N(C)C)n1 [Example 15, N-(cis-4-{[6-(Dimethylamino)-2-methylpyrimidin-4-yl]amino}cyclohexyl)-3-fluoro-4-(trifluoromethyl)benzamide hydrochloride] | > 200 nM
Cc1nc(Cl)cc(N[C@H]2CC[C@@H](NC(=O)c3cc(F)c(F)c(F)c3)CC2)n1 [Example 172, N-{cis-4-[(6-Chloro-2-methylpyrimidin-4-yl)amino]cyclohexyl}-3,4,5-trifluorobenzamide] | > 200 nM
Cc1nc(N[C@H]2CC[C@@H](NC(=O)c3ccc(OC(F)(F)F)cc3)CC2)cc(N(C)C)n1 [Example 20, N-(cis-4-{[6-(Dimethylamino)-2-methylpyrimidin-4-yl]amino}cyclohexyl)-4-(trifluoromethoxy)benzamide hydrochloride] | > 200 nM
Cc1cc(N[C@H]2CC[C@@H](NC(=O)c3ccc(F)c(Cl)c3)CC2)nc(C)n1 [Example 171, 3-Chloro-N-{cis-4-[(2,6-dimethylpyrimidin-4-yl)amino]cyclohexyl}-4-fluorobenzamide hydrochloride] | > 200 nM
Cc1nc(NC2CC2)cc(N[C@H]2CC[C@@H](NC(=O)c3cc(F)c(F)c(F)c3)CC2)n1 [Example 173, N-(cis-4-{[6-(Cyclopropylamino)-2-methylpyrimidin-4-yl]amino}cyclohexyl)-3,4,5-trifluorobenzamide hydrochloride] | > 200 nM
N^4-(cis-4-{[Bromo-2-(trifluoromethoxy)benzyl]amino}cyclohexyl)-N^2,N^2-dimethylpyrimidine-2,4-diamine dihydrochloride [Example 42] | > 200 nM
CCN(C)c1nccc(N[C@H]2CC[C@@H](NC(=O)c3ccc(F)c(F)c3)CC2)n1 [Example 35, N-[cis-4-({2-[Ethyl(methyl)amino]pyrimidine-4-yl}amino)cyclohexyl]-3,4-difluorobenzamide hydrochloride] | > 200 nM
Cc1nc(N[C@H]2CC[C@@H](NC(=O)c3ccc(F)c(Cl)c3)CC2)c(F)c(N(C)C)n1 [Example 181, 3-Chloro-N-(cis-4-{[6-(dimethylamino)-5-fluoro-2-methylpyrimidin-4-yl]amino}cyclohexyl)-4-fluorobenzamide hydrochloride] | > 200 nM

The remaining lines, values ahead:

IC50 | Compound
< 50 nM | Cc1nc(N[C@H]2CC[C@@H](C(=O)Nc3cc(F)c(F)c(F)c3)CC2)cc(N(C)C)n1 [Example 193, cis-4-{[6-(Dimethylamino)-2-methylpyrimidin-4-yl]amino}-N-(3,4,5-trifluorophenyl)-cyclohexanecarboxamide hydrochloride]
50 to 200 nM | Cc1nc(N[C@H]2CC[C@@H](NC(=O)c3cncc(Br)c3)CC2)cc(N(C)C)n1 [Example 12, 5-Bromo-N-(cis-4-{[6-(dimethylamino)-2-methylpyrimidin-4-yl]amino}cyclohexyl)-nicotinamide dihydrochloride]
50 to 200 nM | Cc1cc(N[C@H]2CC[C@@H](NC(=O)c3ccc(F)c(F)c3)CC2)nc(N(C)C)n1 [Example 43, N-(cis-4-{[2-(Dimethylamino)-6-methylpyrimidin-4-yl]amino}cyclohexyl)-3,4-difluorobenzamide hydrochloride]
< 50 nM | Cc1nc(N[C@H]2CC[C@@H](NC(=O)c3ccc(F)c(F)c3)CC2)cc(N(C)C)n1 [Example 5, N-(cis-4-{[6-(Dimethylamino)-2-methylpyrimidin-4-yl]amino}cyclohexyl)-3,4-difluorobenzamide hydrochloride]
< 50 nM | Cc1nc(N[C@H]2CC[C@@H](NC(=O)c3cccc(Cl)c3)CC2)cc(N(C)C)n1 [Example 24, 3-Chloro-N-(cis-4-{[6-(dimethylamino)-2-methylpyrimidin-4-yl]amino}cyclohexyl)-benzamide hydrochloride]
50 to 200 nM | CN(C)c1cc(N[C@H]2CC[C@@H](NC(=O)c3ccc(F)c(F)c3)CC2)ncn1 [Example 2, N-(cis-4-{[6-(1-Dimethylamino)pyrimidin-4-yl]amino}cyclohexyl)-3,4-difluorobenzamide hydrochloride]
50 to 200 nM | Cc1nc(N[C@H]2CC[C@@H](NC(=O)c3cc(F)cc(F)c3)CC2)cc(N(C)C)n1 [Example 13, N-(cis-4-{[6-(Dimethylamino)-2-methylpyrimidin-4-yl]amino}cyclohexyl)-3,5-difluorobenzamide hydrochloride]
50 to 200 nM | Cc1cc(N[C@H]2CC[C@@H](NC(=O)c3ccc(F)c(Cl)c3)CC2)nc(N(C)C)n1 [Example 45, 3-Chloro-N-(cis-4-{([2-(dimethylamino)-6-methylpyrimidin-4-yl]amino}cyclohexyl)-4-fluorobenzamide hydrochloride]
50 to 200 nM | Cn1ccc2c(N[C@H]3CC[C@@H](NC(=O)c4cc(F)c(F)c(F)c4)CC3)ncnc21 [Example 188, 3,4,5-Trifluoro-N-{cis-4-[(7-methyl-7H-pyrrolo[2,3-d]pyrimidin-4-yl)amino]cyclohexyl}benzamide hydrochloride]
< 50 nM | Cc1nc(N[C@H]2CC[C@@H](NC(=O)c3ccc(F)c(Cl)c3)CC2)cc(N(C)C)n1 [Example 6, 3-Chloro-N-(cis-4-{[6-(dimethylamino)-2-methylpyrimidin-4-yl]amino}cyclohexyl)-4-fluorobenzamide hydrochloride]
< 50 nM | Cc1nc(N[C@H]2CC[C@@H](NC(=O)c3cc(F)cc(Cl)c3)CC2)cc(N(C)C)n1 [Example 10, 3-Chloro-N-(cis-4-{[6-(dimethylamino)-2-methylpyrimidin-4-yl]amino}cyclohexyl)-5-fluorobenzamide hydrochloride]
50 to 200 nM | Cc1nc(N[C@H]2CC[C@@H](NC(=O)c3ccc(F)c(Cl)c3)CC2)cc(N2CCOCC2)n1 [Example 39, 3-Chloro-4-fluoro-N-{cis-4-[(2-methyl-6-morpholin-4-ylpyrimidin-4-yl)amino]cyclohexyl}-benzamide hydrochloride]
< 50 nM | Cc1nc(N[C@H]2CC[C@@H](C(=O)Nc3ccc(F)c(Cl)c3)CC2)cc(N(C)C)n1 [Example 191, cis-N-(3-Chloro-4-fluorophenyl)-4-{[6-(dimethylamino)-2-methylpyrimidin-4-yl]amino}cyclohexanecarboxamide hydrochloride]
50 to 200 nM | Cc1nc(N[C@H]2CC[C@@H](NC(=O)c3cccc(F)c3)CC2)cc(N(C)C)n1 [Example 23, N-(cis-4-{[6-(Dimethylamino)-2-methylpyrimidin-4-yl]amino}cyclohexyl)-3-fluorobenzamide hydrochloride]
50 to 200 nM | Cc1nc(N[C@H]2CC[C@@H](NC(=O)c3ccc(Cl)c(F)c3)CC2)cc(N(C)C)n1 [Example 9, 4-Chloro-N-(cis-4-{[6-(dimethylamino)-2-methylpyrimidin-4-yl]amino}cyclohexyl)-3-fluorobenzamide hydrochloride]

— patent US20090036448A1, “PYRIMIDINE DERIVATIVES AND METHODS OF TREATMENT RELATED TO THE USE THEREOF” (TAISHO PHARMECUTICAL CO., LTD., priority 2004, published 2009)
